Measurements reported in ChEMBL document CHEMBL4840351 (J Med Chem, 2021).

Assays:
Cytochrome P450 2D6 = Cytochrome P450 2D6 (Homo sapiens, UniProt P10635); test: Inhibition of CYP2D6 in human liver microsomes using bufuralol as substrate incubated for 10 mins in presence of NADPH by LC-MS/MS analysis; assay type: ADME
Cytochrome P450 1A2 = Cytochrome P450 1A2 (Homo sapiens, UniProt P05177); test: Inhibition of CYP1A2 in human liver microsomes using phenacetin as substrate incubated for 10 mins in presence of NADPH by LC-MS/MS analysis; assay type: ADME
[1] = Drug concentration in ICR mouse plasma at 15 mg/kg, po after 2 hrs; assay type: ADME, organism-based
[2] = Receptor occupancy at BTK in spleen of ICR mouse at 15 mg/kg, po after 1 hr by ELISA; assay type: functional
[3] = Toxicity in SFP CD-1 mouse assessed as pathological change in visceral organs at 10 to 1280 mg/kg, po administered for 7 days by H and E staining based assay; assay type: organism-based; details: in vivo, 168 h, dose 10-1280 mg/kg, time 7 day
[4] = Toxicity in SFP CD-1 mouse assessed as change in animal color at 10 to 1280 mg/kg, po administered for 7 days; assay type: organism-based; details: in vivo, 168 h, dose 10-1280 mg/kg, time 7 day
[5] = Oral bioavailability in Sprague-Dawley rat at 5 mg/kg measured upto 24 hrs by LC/MS/MS analysis; assay type: ADME, organism-based; details: in vivo
[6] = Cmax in Sprague-Dawley rat at 5 mg/kg, po measured upto 24 hrs by LC/MS/MS analysis; assay type: ADME, organism-based; parameters: route oral, dose 5 mg/kg, time <=24; details: in vivo
[7] = Half life in Sprague-Dawley rat at 5 mg/kg, po measured upto 24 hrs by LC/MS/MS analysis; assay type: ADME, organism-based; details: in vivo
[8] = Volume of distribution in Sprague-Dawley rat at 5 mg/kg, iv measured upto 24 hrs by LC/MS/MS analysis; assay type: ADME, organism-based; details: in vivo
[9] = AUC in Sprague-Dawley rat at 5 mg/kg, iv measured upto 24 hrs by LC/MS/MS analysis; assay type: ADME, organism-based; parameters: route intravenous, dose 5 mg/kg, time <=24; details: in vivo
[10] = Half life in Sprague-Dawley rat at 5 mg/kg, iv measured upto 24 hrs by LC/MS/MS analysis; assay type: ADME, organism-based; details: in vivo
[11] = target: T1, Tyrosine-protein kinase ITK/TSK (Homo sapiens, UniProt Q08881); test: Inhibition of full-length N-terminal GST-tagged ITK (2 to 620 residues) (unknown origin) expressed in Sf21 insect cells using NH2-ETVYSEVRK-biotin as substrate preincubated for 1 hr followed by ATP addition and measured after 2 hrs by ELISA
T1 sequence (Q08881 whole entry): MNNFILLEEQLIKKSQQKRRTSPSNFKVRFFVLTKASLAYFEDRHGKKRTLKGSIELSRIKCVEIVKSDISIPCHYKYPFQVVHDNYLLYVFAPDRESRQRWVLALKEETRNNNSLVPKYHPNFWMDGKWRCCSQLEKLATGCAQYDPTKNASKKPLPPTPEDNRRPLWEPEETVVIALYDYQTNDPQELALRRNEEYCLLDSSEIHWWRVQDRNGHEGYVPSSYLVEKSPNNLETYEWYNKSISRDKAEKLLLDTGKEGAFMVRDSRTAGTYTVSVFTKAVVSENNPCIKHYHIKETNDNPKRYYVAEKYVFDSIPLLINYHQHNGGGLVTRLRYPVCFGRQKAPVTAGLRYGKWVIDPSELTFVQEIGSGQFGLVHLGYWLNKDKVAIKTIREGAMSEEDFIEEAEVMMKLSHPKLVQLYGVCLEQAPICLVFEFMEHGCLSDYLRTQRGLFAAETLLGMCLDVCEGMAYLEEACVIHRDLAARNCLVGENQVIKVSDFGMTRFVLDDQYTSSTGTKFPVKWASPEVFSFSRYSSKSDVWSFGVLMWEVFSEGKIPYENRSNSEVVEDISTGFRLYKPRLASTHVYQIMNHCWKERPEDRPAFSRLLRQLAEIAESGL

[12] = target: Tyrosine-protein kinase Tec (Homo sapiens) (UniProt P42680); test: Inhibition of TEC (unknown origin) at 1 uM relative to control
[13] = target: Tyrosine-protein kinase Blk (Homo sapiens, UniProt P51451); test: Inhibition of BLK (unknown origin) at 1 uM relative to control
[14] = target: Proto-oncogene tyrosine-protein kinase Src (Homo sapiens, UniProt P12931); test: Inhibition of SRC (unknown origin)
[15] = target: Tyrosine-protein kinase Lyn (Homo sapiens, UniProt P07948); test: Inhibition of LYN (unknown origin)
Ramos = test: Antiproliferative activity against human Ramos cells assessed as reduction in cell viability incubated for 72 hrs by celltiter-glo assay
Raji = test: Antiproliferative activity against human Raji cells assessed as reduction in cell viability incubated for 72 hrs by celltiter-glo assay
TMD8 [16] = test: Induction of cell cycle arrest in human TMD8 cells assessed as accumulation of cells at G1 phase at 3 nM incubated for 48 hrs by PI staining based flow cytometric analysis (reference value: 57.66 %); assay type: functional
TMD8 [17] = test: Induction of cell cycle arrest in human TMD8 cells assessed as accumulation of cells at G1 phase at 30 nM incubated for 48 hrs by PI staining based flow cytometric analysis (reference value: 57.66 %); assay type: functional
TMD8 [18] = test: Induction of cell cycle arrest in human TMD8 cells assessed as accumulation of cells at S phase at 300 nM incubated for 48 hrs by PI staining based flow cytometric analysis (reference value: 37.42 %); assay type: functional
TMD8 [19] = test: Induction of cell cycle arrest in human TMD8 cells assessed as accumulation of cells at G2 phase at 300 nM incubated for 48 hrs by PI staining based flow cytometric analysis (reference value: 4.92 %); assay type: functional
TMD8 [20] = test: Induction of apoptosis in human TMD8 cells at 300 nM incubated for 72 hrs by Annexin V-FITC/PI staining based flow cytometric analysis (reference value: 13.4 %); assay type: functional
TMD8 [21] = test: Induction of apoptosis in human TMD8 cells at 3000 nM incubated for 72 hrs by Annexin V-FITC/PI staining based flow cytometric analysis (reference value: 13.4 %); assay type: functional
[22] = target: Tyrosine-protein kinase BTK (Homo sapiens, UniProt Q06187); test: Inhibition of BTK in human TMD8 cells assessed as reduction in BTK autophosphorylation at Tyr 223 residue after 4 hrs by Western blot analysis; assay type: cell-based
TMD8 [23] = test: Antitumor activity against human TMD8 cells xenografted in CB-17 SCID nude mouse assessed as tumor growth inhibition at 3.75 mg/kg, po bid administered for 21 days; assay type: functional; details: 504 h, time 21 day, read-out: TGI
TMD8 [24] = test: Antitumor activity against human TMD8 cells xenografted in CB-17 SCID nude mouse assessed as tumor growth inhibition at 7.5 mg/kg, po bid administered for 21 days; assay type: functional; details: 504 h, time 21 day, read-out: TGI

Tyrosine-protein kinase Blk, sequence (P51451 2-505 limits assumed): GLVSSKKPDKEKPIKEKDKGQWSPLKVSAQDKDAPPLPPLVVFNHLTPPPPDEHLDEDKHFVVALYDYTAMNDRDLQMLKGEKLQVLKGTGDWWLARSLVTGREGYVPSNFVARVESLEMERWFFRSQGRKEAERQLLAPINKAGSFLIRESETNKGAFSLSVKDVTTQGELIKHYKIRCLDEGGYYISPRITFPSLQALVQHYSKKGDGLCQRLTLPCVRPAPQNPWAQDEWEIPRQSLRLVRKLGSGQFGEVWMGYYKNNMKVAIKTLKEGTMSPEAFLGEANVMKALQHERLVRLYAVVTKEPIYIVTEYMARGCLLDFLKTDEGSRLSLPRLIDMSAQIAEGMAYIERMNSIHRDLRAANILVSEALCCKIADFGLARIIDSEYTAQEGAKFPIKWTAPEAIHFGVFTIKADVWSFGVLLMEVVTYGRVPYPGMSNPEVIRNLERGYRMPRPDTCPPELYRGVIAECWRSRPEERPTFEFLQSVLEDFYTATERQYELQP
Tyrosine-protein kinase Tec (Homo sapiens), sequence (P42680 whole entry): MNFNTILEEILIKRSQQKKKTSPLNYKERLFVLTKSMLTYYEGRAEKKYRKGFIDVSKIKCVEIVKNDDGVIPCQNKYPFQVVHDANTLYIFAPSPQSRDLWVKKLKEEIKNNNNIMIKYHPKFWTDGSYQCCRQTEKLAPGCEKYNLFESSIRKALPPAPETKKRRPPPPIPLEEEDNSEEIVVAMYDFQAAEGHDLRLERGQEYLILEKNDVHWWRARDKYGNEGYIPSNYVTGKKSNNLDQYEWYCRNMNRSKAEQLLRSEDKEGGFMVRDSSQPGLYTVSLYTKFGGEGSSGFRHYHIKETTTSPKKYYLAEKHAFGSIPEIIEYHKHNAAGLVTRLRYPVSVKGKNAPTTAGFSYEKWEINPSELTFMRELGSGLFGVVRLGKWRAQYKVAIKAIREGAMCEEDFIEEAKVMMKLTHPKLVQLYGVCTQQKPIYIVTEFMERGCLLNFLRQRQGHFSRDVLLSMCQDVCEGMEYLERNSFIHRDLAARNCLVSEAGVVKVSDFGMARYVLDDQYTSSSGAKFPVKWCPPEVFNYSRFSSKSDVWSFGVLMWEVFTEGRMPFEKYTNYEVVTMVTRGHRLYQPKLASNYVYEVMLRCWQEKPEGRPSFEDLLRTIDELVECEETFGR
Tyrosine-protein kinase BTK, sequence (Q06187 whole entry): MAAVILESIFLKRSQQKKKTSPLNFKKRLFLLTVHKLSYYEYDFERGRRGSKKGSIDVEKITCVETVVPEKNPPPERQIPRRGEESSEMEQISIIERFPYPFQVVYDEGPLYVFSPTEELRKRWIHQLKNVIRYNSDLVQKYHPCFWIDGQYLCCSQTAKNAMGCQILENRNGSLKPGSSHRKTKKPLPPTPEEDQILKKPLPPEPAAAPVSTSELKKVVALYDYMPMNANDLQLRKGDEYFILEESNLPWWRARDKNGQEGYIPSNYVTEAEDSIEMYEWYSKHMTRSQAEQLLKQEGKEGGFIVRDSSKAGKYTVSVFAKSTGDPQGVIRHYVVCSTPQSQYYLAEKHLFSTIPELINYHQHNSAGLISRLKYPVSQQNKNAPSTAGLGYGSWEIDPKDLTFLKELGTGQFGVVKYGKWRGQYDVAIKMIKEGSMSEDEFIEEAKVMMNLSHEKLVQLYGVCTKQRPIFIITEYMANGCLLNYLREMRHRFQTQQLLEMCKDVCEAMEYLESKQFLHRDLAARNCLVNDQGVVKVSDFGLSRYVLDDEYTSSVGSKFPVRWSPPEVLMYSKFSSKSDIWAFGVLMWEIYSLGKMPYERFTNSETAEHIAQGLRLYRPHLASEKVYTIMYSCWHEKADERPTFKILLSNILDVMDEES
Cytochrome P450 1A2, sequence (P05177 whole entry): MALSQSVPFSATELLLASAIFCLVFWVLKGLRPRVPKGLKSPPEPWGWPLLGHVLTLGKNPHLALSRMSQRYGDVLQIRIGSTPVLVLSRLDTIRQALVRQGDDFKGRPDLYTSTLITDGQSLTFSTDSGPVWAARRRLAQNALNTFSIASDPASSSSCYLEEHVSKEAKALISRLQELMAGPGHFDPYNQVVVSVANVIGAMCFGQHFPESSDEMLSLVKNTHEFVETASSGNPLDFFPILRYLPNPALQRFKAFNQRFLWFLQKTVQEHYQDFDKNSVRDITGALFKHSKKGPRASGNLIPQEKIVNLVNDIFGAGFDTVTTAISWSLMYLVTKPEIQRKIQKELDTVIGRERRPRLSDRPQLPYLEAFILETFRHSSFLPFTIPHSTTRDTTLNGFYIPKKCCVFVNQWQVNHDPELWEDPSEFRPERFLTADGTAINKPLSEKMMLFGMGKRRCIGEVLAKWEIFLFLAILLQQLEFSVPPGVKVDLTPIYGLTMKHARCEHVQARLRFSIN
Tyrosine-protein kinase Lyn, sequence (P07948 whole entry): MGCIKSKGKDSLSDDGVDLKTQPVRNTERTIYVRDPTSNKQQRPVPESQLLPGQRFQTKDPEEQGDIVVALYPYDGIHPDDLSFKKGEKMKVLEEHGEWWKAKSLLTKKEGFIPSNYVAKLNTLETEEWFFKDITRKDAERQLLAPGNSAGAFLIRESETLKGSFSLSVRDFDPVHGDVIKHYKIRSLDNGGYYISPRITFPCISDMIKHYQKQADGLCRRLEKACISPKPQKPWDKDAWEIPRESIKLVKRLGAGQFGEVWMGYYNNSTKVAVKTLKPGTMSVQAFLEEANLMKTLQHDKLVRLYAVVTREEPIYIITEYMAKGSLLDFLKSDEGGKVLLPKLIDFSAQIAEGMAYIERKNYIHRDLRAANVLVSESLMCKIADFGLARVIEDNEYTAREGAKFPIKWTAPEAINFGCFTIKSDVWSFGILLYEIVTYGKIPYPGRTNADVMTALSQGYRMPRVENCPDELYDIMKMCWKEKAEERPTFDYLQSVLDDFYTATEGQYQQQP
Proto-oncogene tyrosine-protein kinase Src, sequence (P12931 2-536 limits assumed): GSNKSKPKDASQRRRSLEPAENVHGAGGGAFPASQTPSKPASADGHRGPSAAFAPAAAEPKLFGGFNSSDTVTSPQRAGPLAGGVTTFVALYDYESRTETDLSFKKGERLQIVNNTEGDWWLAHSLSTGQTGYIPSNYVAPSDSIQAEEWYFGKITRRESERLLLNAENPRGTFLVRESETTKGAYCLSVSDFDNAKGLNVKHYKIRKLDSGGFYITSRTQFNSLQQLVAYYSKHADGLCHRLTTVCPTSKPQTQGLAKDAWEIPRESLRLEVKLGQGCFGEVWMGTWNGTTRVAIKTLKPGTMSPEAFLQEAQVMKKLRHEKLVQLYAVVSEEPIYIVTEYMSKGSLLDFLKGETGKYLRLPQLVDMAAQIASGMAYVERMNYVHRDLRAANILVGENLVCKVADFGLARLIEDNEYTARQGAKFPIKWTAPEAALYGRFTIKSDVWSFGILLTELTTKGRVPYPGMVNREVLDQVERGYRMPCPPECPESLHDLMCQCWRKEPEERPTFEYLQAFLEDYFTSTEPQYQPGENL
Cytochrome P450 2D6, sequence (P10635 whole entry): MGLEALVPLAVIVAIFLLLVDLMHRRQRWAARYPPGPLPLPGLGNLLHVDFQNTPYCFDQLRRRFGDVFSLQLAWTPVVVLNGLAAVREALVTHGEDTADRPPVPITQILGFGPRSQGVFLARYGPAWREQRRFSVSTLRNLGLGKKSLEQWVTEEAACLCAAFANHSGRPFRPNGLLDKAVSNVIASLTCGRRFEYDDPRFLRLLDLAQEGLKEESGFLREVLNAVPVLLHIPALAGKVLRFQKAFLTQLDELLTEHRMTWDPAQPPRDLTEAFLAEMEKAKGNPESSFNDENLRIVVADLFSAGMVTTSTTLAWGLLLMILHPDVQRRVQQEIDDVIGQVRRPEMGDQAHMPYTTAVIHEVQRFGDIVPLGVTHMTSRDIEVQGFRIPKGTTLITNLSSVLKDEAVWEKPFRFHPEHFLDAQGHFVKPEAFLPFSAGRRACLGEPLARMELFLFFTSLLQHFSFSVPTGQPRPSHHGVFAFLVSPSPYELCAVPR

## C=CC(=O)N1CCCC[C@H]1c1nc(-c2ccc(C(=O)Nc3cc(C(F)(F)F)ccn3)cc2)c(C(N)=O)n1N
Cytochrome P450 2D6
  IC50: > 10000 nM
Cytochrome P450 1A2
  IC50: > 10000 nM
[1]
  concentration at 2 h: 640 nM
[2]
  Occ: 95%
[3]
  Activity: Non-Toxic
[4]
  Activity: Non-Toxic
[5]
  bioavailability: 31.4%
[6]
  Cmax: 501 ng/mL
[7]
  half-life: 1.35 h
[8]
  Vd: 1.5 L/kg
[9]
  AUC at 24 h: 6360 ng·h/mL
[10]
  half-life: 1.32 h
[11]
  IC50: 847 nM
[12]
  inhibition: > 80%
[13]
  inhibition: > 80%
[14]
  inhibition (INH): Not Active
[15]
  inhibition (INH): Not Active
Ramos
  IC50: 2500 nM
Raji
  IC50: 4300 nM
TMD8 [16]
  Activity: 54.21%
TMD8 [17]
  Activity: 84.36%
TMD8 [18]
  Activity: 2.37%
TMD8 [19]
  Activity: 3.79%
TMD8 [20]
  Activity: 34.1%
TMD8 [21]
  Activity: 68.4%
[22]
  IC50: 8.96 nM
TMD8 [23]
  inhibition in vivo at 3.75 mg/kg: 81%
TMD8 [24]
  inhibition in vivo at 7.5 mg/kg: 96%
